Results taken from patent EP4789666A1, “RNA M6A REGULATOR COMPOSITION, PREPARATION METHOD THEREFOR, AND USE THEREOF” (SHANGHAI MERNA THERAPEUTICS CO. LTD, priority 2023, dated 2025).
Read-outs that look alike come from different tables or passages of the source.

Experiments:
[1] = test system: human HaCaT keratinocytes; test: m6A methylation level of human keratinocytes (EpiQuik m6A RNA methylation quantification kit); format: cell-based; settings: 24 hours, relative to control group 1
Experimental: HaCaT cells were cultured in DMEM culture medium containing 10% fetal bovine serum, 100 U/mL penicillin, and 100 µg/mL streptomycin. Culture dishes were placed in an incubator containing 5% CO2 for culture at 37°C for 24 hours. An equal volume of DMSO was added in control group 1, 50 nM sorafenib, capecitabine, docetaxel, and osimertinib were respectively added in control groups A, B, C, and D, and 400 nM test compounds or nicotinamide were respectively added in sample groups A1, A2, B1, B2, C1, C2, D1, and D2 after the addition of 50 nM corresponding compounds. The cells were continuously cultured for 24 hours, washed with PBS, and then collected by high-speed centrifugation. Total RNA was extracted using Trizol reagent (Sigma Aldrich), and RNA m6A methylation of a sample was quantitatively detected using an EpiQuik m6A RNA methylation quantification kit. The concentrations of positive control samples for a standard curve were 0.01 ng/µl, 0.02 ng/µl, 0.05 ng/µl, 0.1 ng/µl, 0.2 ng/µl, and 0.5 ng/µl. The absorbance at 450 nm was read using a microplate reader (Tecan GENios). A quantitative calculation formula for m6A is as follows: m6A (ng) = (absorbanceofsamplewell-absorbanceofbackgroundwell)/slope of standard curve [formula] m6A (%) = m6A (ng)/RNA amount of sample (ng)*100%. [formula]
Table 1: Fold change in m6A methylation level relative to control group 1

[2] = test system: rat models with hand-foot skin reaction; test: Rat models with hand-foot skin reaction, topical ointment (incidence rate, histology, immunohistochemistry); format: in vivo, SD rats; settings: for Incidence rate, left paw: once daily 30 days; for Incidence rate, right paw: right paw with blank matrix ointment (self-control)
Experimental: After adaptive feeding for one week, SD rats (with a body weight of approximately 200 g) were randomly divided into groups with balanced body weight, with 12 rats in each group. Modeling drugs (including sorafenib, erlotinib, afatinib, and osimertinib) were respectively dissolved in a solution containing 5% of DMSO, 45% of PEG400, and 50% of H2O, and the modeling drugs were diluted to required concentrations and then administered once daily by gavage at doses shown in Table 3. After administration by gavage for 1 hour, 0.05 g of ointments containing different mass proportions of test compounds were evenly applied to left paws of the rats, a blank matrix ointment was applied to right paws of the rats to serve as a self-control, and no ointment was applied to the rats in a blank control group. After drug application, four limbs were continuously immobilized for 2 hours, then wiped with clean water to remove the residual drugs, removed from immobilization, and restored to free movement. The modeling drugs, the blank matrix ointment, and the ointments containing the test compounds were all administered once daily. After continuous administration for 30 days, the rats were euthanized, and paw plantar skin tissues were collected, fixed in 10% neutral formalin, […]. The ointments for the test compounds were prepared by mixing the compounds, white beeswax, white petrolatum, and light liquid paraffin in specific ratios (weight ratios of 3 ointments were respectively 1:18:58:23, 3:18:57:22, and 10:20:40:30). The blank matrix ointment was prepared by mixing white beeswax, white petrolatum, and light liquid paraffin in a specific ratio (weight ratio of 18:60:22).
Tissue staining: After dewaxing and rehydration, the paw plantar skin tissue sections of the above rats were stained in a hematoxylin solution for several minutes, cleaned, and placed in 1% acid alcohol for soaking until the sections faded to light blue-red. After cleaning with running water for 5 minutes, the sections were stained with eosin for 2-3 minutes, cleaned to remove excess dyes, dehydrated, then permeabilized by adding xylene for several minutes, and sealed and fixed with a neutral resin. The stratum corneum was observed under an optical microscope, and the thickness of the epidermal stratum corneum was measured using Dmetrix software.
Immunohistochemical staining: After dewaxing and hydration, the paw plantar skin tissue sections of the above rats were incubated with 3% H2O2 at room temperature for 30 minutes and blocked with 10% goat serum for 30 minutes after antigen retrieval. A KRT1 antibody (Abcam, ab93652) and a Loricrin antibody (Abcam, ab183646) were added dropwise, the sections were incubated overnight at 4°C, and an HRP secondary antibody (ZSGB-BIO, PV-6001) and a DAB kit (ZSG-BIO, ZLI9017) were added for color development. The sections were re-stained with hematoxylin, cleaned, and sealed and fixed with a neutral resin, and the expression amounts of KRT1 and Loricrin were observed under an optical microscope.
An incidence rate calculation method involves a proportion of animals in each group meeting the above criteria for determining successful modeling, that is, incidence rate = (number of successfully modeled rats/total number of rats in the group)*100%. […]

[3] = Pharmacokinetic study after single topical administration of ointment to the skin of CD-1 mice (LC-MS/MS); format: in vivo; settings: 3% suspension ointment
Experimental: 6 CD-1 mice were divided into 2 groups, with 3 mice per group, and then respectively received an ointment containing the compound of formula (I) by single topical administration to the backs at 1 mg/cm^2 (3% suspension ointment) with an application area of 1 cm^2. The plasma concentration and skin tissue homogenate concentration of the compound of formula (I) were determined by an LC-MS/MS method.

[4] = Afatinib 50 mg/kg model, 1% ointment on left paw
[5] = Afatinib 50 mg/kg model, 3% ointment on left paw
[6] = Afatinib 50 mg/kg model, 10% ointment on left paw
[7] = Erlotinib 70 mg/kg model, 1% ointment on left paw
[8] = Erlotinib 70 mg/kg model, 3% ointment on left paw
[9] = Erlotinib 70 mg/kg model, 10% ointment on left paw
[10] = Osimertinib 60 mg/kg model, 1% ointment on left paw
[11] = Osimertinib 60 mg/kg model, 3% ointment on left paw
[12] = Osimertinib 60 mg/kg model, 10% ointment on left paw
[13] = Sorafenib 100 mg/kg model, 1% ointment on left paw
[14] = Sorafenib 100 mg/kg model, 3% ointment on left paw
[15] = Sorafenib 100 mg/kg model, 10% ointment on left paw
[16] = dorsal skin tissue homogenate, 1 mg/cm^2, mean
[17] = mouse, topical or ocular, plasma, 1 mg/cm^2, mean

- Plasma drug concentration at 24 h ([3]; 1 mg/cm^2): Below a lower detection limit
- Drug concentration in skin tissues at 4 h [3, 16]: 33,033 ng/g
- Drug concentration in skin tissues at 24 h [3, 16]: 7,907 ng/g
- concentration at 4 h ([3]; mouse, dorsal skin tissue homogenate, 1 mg/cm^2, mean, read-out: Drug concentration in skin tissues at 4 h): 33000 ng/g
- concentration at 24 h ([3]; mouse, dorsal skin tissue homogenate, 1 mg/cm^2, mean, read-out: Drug concentration in skin tissues at 24 h): 7910 ng/g
- concentration at 4 h ([3]; mouse, plasma, 1 mg/cm^2, mean, read-out: Plasma drug concentration at 4 h): 6.15 ng/mL
- Cmax ([3]; mouse, topical or ocular, plasma, 1 mg/cm^2, 1 cm^2, mean): 14 ng/mL
- AUC(0-inf) [3, 17]: 57.5 ng·h/mL
- AUC(0-t) [3, 17]: 40.7 ng·h/mL
- MRT inf [3, 17]: 5.54 h
- Tmax [3, 17]: 1.67 h
- half-life [3, 17]: 5.15 h
- AUC Extr ([3]; plasma, 1 mg/cm^2, mean): 18.9%
- AUCInf/Dose ([3]; plasma, 1 mg/cm^2, mean): 1.63 kg·ng·h/mL/mg
SMILES: NC(=O)[C@H]1CCCc2c1[nH]c1ccc(Cl)cc21 [Compound of formula (I), (S)-6-chloro-2,3,4,9-tetrahydro-1H-carbazole-carboxamide]
- m6A fold change ([1]; 400 nM after 50 nM capecitabine): 1.1
- m6A fold change ([1]; 400 nM after 50 nM docetaxel): 1.0
- m6A fold change ([1]; 400 nM after 50 nM osimertinib): 1.2
- m6A fold change ([1]; 400 nM after 50 nM sorafenib): 1.4
- Incidence rate, left paw [2, 4]: 3/12 (25%)
- Incidence rate, left paw [2, 5]: 2/12 (17%)
- Incidence rate, left paw [2, 6]: 0/12 (0%)
- Incidence rate, right paw [2, 4]: 9/12 (75%)
- Incidence rate, right paw [2, 5]: 4/12 (33%)
- Incidence rate, right paw [2, 6]: 3/12 (25%)
- Incidence rate, left paw [2, 7]: 3/12 (25%)
- Incidence rate, left paw [2, 8]: 2/12 (17%)
- Incidence rate, left paw [2, 9]: 1/12 (8%)
- Incidence rate, right paw [2, 7]: 10/12 (83%)
- Incidence rate, right paw [2, 8]: 5/12 (42%)
- Incidence rate, right paw [2, 9]: 4/12 (33%)
- Incidence rate, left paw [2, 10]: 2/12 (17%)
- Incidence rate, left paw [2, 11]: 2/12 (17%)
- Incidence rate, left paw [2, 12]: 0/12 (0%)
- Incidence rate, right paw [2, 10]: 8/12 (67%)
- Incidence rate, right paw [2, 11]: 4/12 (33%)
- Incidence rate, right paw [2, 12]: 3/12 (25%)
- Incidence rate, left paw [2, 13]: 2/12 (17%)
- Incidence rate, left paw [2, 14]: 2/12 (17%)
- Incidence rate, left paw [2, 15]: 0/12 (0%)
- Incidence rate, right paw [2, 13]: 9/12 (75%)
- Incidence rate, right paw [2, 14]: 4/12 (33%)
- Incidence rate, right paw [2, 15]: 4/12 (33%)
